What was measured:
STAT3 and STAT1 = test: IL-6 induced STAT3 and STAT1 phosphorylation in melanoma cell lines; assay type: cell-based; conditions: cells pre-treated with compound
Description: FIGS. 4A-4L illustrate that PET-16 impairs proteostasis. […] There is a general absence of obvious nuclei in PET-16 treated tumor cells. […] FIGS. 4D and 4E are gels of whole-cell extracts (WCE) prepared from human melanoma A875 (D) or 451 Lu (E) cells treated with DMSO, PES or PET-16 that were immunoprecipitated using an anti-HSP70 antibody. The excised band of about 70 kDa shown in the Coomassie gel is HSP70, as confirmed by liquid chromatography—tandem mass spectrometry analysis. FIGS. 4F-4I are western blots of cell lines were treated with DMSO, PES or PET-16 for 24 h and immunoblotted for the indicated proteins. FIG. 4J are western blots of indicated melanomas pretreated with DMSO, PES or PET-16, followed by treatment with IL-6. Cell extracts were immunoblotted for the proteins indicated. Inhibition of IL-6 induced STAT3 and STAT1 phosphorylation by PET-16. FIG. 4K is a western blot analysis indicating altered processing of cathepsin L from the larger precursor form to the smaller mature form in the indicated cells following PET-16 treatment for 24 h. FIG. 4L is a western blot of the human melanoma 451 Lu cells treated with DMSO, PES or PET-16 for 24 h. Cells were harvested in 1% NP40-containing lysis buffer, fractionated into detergent-soluble and detergent-insoluble preparations, and assayed by western blot for ubiquitin. […]

[1] = molecular target: T1, full-length, nucleotide-free HSP70 protein (Homo sapiens, UniProt P0DMV8, E110D); test: ITC binding to nucleotide-free full-length HSP70; conditions: average and s.d. of two experiments, read-out: dissociation constant
T1 construct: Full-length recombinant proteins of HSP70 (aa 1-641) as well as DnaK (aa 1-638); His6 (N); made in house; host or cells: E. coli BL21 Star (DE3)
Description: FIGS. 3A-3L illustrate that PET-16 binds directly to ADP-bound HSP70 and DnaK. Specifically, FIGS. 3A-3H are isothermal calorimetric titration (ITC) assays of the indicated compounds (NRLLLTG—SEQ ID NO: 7, PES or PET-16) with purified HSP70-ADP, DnaK-ADP or HSP70-ATP proteins. The data are representative of three independent experiments. FIGS. 3I and 3J are ITC assays for the interaction between HSP70 (aa 386-616 of SEQ ID NO: 2) protein and PET-16 (I) or TPP (J). Binding constants (Kd values) are shown (average and s.d. from three independent experiments). PET-16 also binds directly to the purified, full-length, nucleotide-free HSP70 protein, with a reported dissociation constant of 5.2+/−0.1 micromolar, which is the average and standard deviation from two independent experiments (data not shown). FIG. 3K is ITC assay of HSP70 protein preincubated with ADP and PES for 1 h. The mixture was titrated into the sample cell containing PET-16. The data are representative of three independent ITC experiments. FIG. 3L are western blots of human lung carcinoma (H1299) cells that were pretreated with DMSO or excess (8×) PET-16 for 1 h prior to the addition of 20 μM B-PES for 5 h and examined for the expression of HSP70 or BCL-xL. B-PES-containing complexes were captured by Avidin resins and immunoblotted either with anti-HSP70 or anti-BCL-xL antibody. […]

[2] = tested on: non-transformed cells (fibroblasts, primary melanocytes); test: Viability of non-transformed cells; assay type: cell-based, human; conditions: at concentrations that inhibit tumor cell viability
Method: FIGS. 2A-2D illustrate the cytotoxicity of PET-16 to human tumor cells and its inhibition on E. coli growth. FIG. 2A is a line graph with data obtained from MTT assays of human melanoma cell lines treated with the indicated concentrations of PES or PET-16 for 72 h. The corresponding cell survival is normalized to vehicle (DMSO) treatment. Average and standard deviation (s.d.) from three independent experiments are shown. FIG. 2B are bar graphs of human melanoma (A875) cells and nontransformed human (IMR90) fibroblasts that were treated with DMSO, 10 μM PES or 10 μM PET-16 for 24 h. […] FIG. 2C is a line graph illustrating the growth of E. coli DH5α treated with different concentrations of PES or PET-16 for 6 h at 43° C. Error bars represent the s.d. of four independent experiments. FIG. 2D is a bar graph illustrating the growth of E. coli DH5α treated with DMSO, 30 μM PET-16 or 30 μM TPP for 6 h at 43° C. Error bars represent the s.d. of four independent experiments.

T1 sequence (P0DMV8 whole entry E110D, the tested form may be a part): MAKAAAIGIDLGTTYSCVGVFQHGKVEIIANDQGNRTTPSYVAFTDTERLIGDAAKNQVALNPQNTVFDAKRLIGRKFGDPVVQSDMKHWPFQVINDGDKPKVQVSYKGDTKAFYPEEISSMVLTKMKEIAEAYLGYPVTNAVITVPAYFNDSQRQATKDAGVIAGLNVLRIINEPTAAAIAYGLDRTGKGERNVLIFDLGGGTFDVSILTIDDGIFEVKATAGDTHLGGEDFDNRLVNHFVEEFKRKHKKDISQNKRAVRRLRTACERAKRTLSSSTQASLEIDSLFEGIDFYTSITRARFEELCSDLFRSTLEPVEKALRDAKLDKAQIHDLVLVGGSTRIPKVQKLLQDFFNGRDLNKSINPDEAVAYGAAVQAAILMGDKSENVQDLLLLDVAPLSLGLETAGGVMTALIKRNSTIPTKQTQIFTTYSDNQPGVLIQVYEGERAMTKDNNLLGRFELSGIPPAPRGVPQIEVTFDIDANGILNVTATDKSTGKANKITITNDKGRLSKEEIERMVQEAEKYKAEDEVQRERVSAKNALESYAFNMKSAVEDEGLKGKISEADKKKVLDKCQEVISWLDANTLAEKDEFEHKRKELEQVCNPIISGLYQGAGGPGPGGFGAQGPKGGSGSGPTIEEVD

Question: Which “IL-6 mediated phosphorylation of STAT3 and STAT1” value (STAT3 and STAT1) does the source give for `C(#C[P+](c1ccccc1)(c1ccccc1)c1ccccc1)c1ccccc1.[Br-]` [PET-16, triphenyl(phenylethynyl)phosphonium bromide] here?
Answer: The value was “inhibited”.

Question: What about the Kd [1] of the same compound?
Answer: The Kd was 5.2 µM.

Question: And the “effect on viability of non-transformed cells” value [2]?
Answer: Its value is “little effect”.
